Patent US20240336574A1 (LATIGO BIOTHERAPEUTICS, INC., priority 2021, published 2024)
Where two headings read alike, the source gives them in different places.

Biological target: T1, recombinant human NaV1.8 stably transfected HEK cells (Homo sapiens, UniProt Q9Y5Y9)
T1 construct: expressed in transfected cells; host or cells: HEK cells, stably transfected
Test: Compound profiling on NaV1.8, human NaV1.8 cell line, SyncroPatch384PE automated patch clamp assay (Example 102, first set of compounds, Table 16)
Assay type: cell-based
Details: human NaV1.8 HEK cells, Table 16 (first set of compounds)
Method: Compound Profiling on NaV1.8—Human NaV1.8 Cell Line—SyncroPatch384PE Assay
Compounds were tested on recombinant human NaV1.8 stably transfected HEK cells using the SyncroPatch384PE system, an automated patch clamp device. Cells were cultured at 37° C./5% CO2 in DMEM medium supplemented with GlutaMAX I, NEAA 1%, FBS 10% and seeded in T175 flasks. Cells were cultured at 30° C. one day prior to recording sodium currents. On the day of the recordings, cells were detached with 0.05% Trypsin-EDTA, resuspended in serum free DMEM medium and placed into the SyncroPatch384PE 6° C. pre-cooled cell hotel and shaken at 200 rpm. Intracellular solution (IC) contained, in mM: 10, CsCl; 110, CsF; 20, EGTA; 10, HEPES. Extracellular solution (EC) contained, in mM: 140, NaCl; 4, KCl; 5, Glucose; 10, HEPES; 2, CaCl2; 1, MgCl2. Washing solution contained, in mM: 40, NMDG; 100, NaCl; 4, KCl; 10, Glucose; 10, HEPES; 5, CaCl2; 1, MgCl2.
Compounds were tested in triplicate in 0.1% DMSO and 0.030% Pluronic Acid. Compounds were diluted 1:3 in EC solution to create a 10-point concentration response curve, spanning a final concentration range from 20-0.001 μM in the assay plate. Each plate contained tetracaine and another tool compound as positive controls. Up to 8 compounds were tested on one plate. 250 μM tetracaine and 0.1% DMSO were used as high and low controls, respectively. Whole cell patch clamp recordings were conducted according to Nanion's standard procedure for SyncroPatch384PE®. Cells were held at a holding potential of −120 mV. A depolarization step to 10 mV for 30 ms was applied (P1 measurement), followed by a hyperpolarization step to −100 mV for 100 ms. An inactivation step at −40 mV for 10 sec was applied before stepping to −100 mV for 20 ms, followed by a step to 10 mV for 30 ms (P2 measurement) and then back to −100 mV for 30 ms. Sweep interval was 15 sec with a sampling rate of 10 kHz. Following establishment of the whole-cell configuration in EC, two washing steps with reference buffer were performed to stabilize the baseline. Compounds were then applied by the SynchroPatch into each well and the current was recorded for five minutes in EC, followed by application of tetracaine to achieve full block at the end of the experiment. The potency of the compounds was assessed on two read-outs, resting state block (P1 measurement) or inactivated state block (P2 measurement) to obtain IC50 values. Values were normalized to high (tetracaine) and low (DMSO) controls. The IC50 values are listed in Table 16 as follows: “A” represents an IC50 less than or equal to 20 nM, “B” represents an IC50 greater than 20 nM to less than or equal to 40 nM, “C” represents an IC50 greater than 40 nM to less than or equal to 200 nM, “D” represents an IC50 greater than 200 nM to less than or equal to 500 nM.

[1] = inactivated state block (P2 measurement), read-out: P2IC50
[2] = resting state block (P1 measurement), read-out: P1IC50

T1 sequence (Q9Y5Y9 whole entry): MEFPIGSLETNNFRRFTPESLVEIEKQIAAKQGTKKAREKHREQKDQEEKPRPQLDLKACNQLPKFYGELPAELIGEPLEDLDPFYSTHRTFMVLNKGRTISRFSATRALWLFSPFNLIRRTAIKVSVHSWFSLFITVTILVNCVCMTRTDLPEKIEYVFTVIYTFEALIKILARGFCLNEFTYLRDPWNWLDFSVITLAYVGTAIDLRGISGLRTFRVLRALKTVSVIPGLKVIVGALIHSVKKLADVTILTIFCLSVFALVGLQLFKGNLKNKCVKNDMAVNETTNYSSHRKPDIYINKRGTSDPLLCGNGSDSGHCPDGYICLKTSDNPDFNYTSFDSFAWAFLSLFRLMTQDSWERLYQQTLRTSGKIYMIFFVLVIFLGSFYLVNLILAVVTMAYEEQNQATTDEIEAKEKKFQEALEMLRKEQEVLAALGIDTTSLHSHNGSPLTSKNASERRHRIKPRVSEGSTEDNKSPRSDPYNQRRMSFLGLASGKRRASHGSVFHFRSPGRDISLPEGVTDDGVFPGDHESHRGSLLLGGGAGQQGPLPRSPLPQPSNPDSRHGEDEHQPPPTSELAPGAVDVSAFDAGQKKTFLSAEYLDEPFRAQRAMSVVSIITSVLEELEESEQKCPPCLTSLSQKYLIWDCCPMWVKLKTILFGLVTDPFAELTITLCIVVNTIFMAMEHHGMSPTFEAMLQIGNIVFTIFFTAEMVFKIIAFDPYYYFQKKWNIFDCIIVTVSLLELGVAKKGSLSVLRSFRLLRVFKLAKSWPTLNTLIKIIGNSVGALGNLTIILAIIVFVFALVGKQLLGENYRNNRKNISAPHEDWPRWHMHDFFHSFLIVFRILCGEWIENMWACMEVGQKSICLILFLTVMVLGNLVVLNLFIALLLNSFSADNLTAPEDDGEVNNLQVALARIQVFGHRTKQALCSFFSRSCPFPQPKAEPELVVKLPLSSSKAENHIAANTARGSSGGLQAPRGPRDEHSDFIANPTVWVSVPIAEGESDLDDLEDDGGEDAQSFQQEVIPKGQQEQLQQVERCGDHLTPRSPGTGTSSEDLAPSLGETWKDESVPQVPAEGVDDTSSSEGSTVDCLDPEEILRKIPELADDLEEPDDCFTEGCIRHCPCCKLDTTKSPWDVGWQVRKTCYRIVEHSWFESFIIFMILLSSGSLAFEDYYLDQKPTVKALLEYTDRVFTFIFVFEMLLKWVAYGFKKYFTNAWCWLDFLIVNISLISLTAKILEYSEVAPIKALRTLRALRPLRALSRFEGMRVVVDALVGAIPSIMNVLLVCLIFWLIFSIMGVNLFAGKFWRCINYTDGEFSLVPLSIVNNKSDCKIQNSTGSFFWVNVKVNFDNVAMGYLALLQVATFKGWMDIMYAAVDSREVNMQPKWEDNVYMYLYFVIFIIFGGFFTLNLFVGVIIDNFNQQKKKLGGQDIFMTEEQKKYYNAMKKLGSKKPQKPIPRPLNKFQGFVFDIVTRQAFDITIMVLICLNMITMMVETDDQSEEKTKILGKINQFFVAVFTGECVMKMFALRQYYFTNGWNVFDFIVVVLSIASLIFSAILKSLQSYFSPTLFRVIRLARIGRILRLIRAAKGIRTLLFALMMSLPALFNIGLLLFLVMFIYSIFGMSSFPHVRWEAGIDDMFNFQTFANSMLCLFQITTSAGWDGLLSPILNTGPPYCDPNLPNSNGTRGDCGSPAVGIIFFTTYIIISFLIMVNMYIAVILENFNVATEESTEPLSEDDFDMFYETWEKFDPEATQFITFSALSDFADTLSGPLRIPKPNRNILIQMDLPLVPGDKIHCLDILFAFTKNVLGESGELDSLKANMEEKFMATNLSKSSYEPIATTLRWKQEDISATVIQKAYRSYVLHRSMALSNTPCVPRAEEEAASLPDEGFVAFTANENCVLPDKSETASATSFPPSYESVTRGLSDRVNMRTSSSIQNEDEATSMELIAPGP

Compound | IC50 [1] [nM] | IC50 [2] [nM]
COc1cc(C#N)ccc1Oc1nnc(-c2ccccc2)c(C)c1C(=O)Nc1cccc(S(C)(=N)=O)c1 (stereo not shown) [Compound 1436, 3-(4-cyano-2-methoxyphenoxy)-5-methyl-N-(3-(S-methylsulfonimidoyl)phenyl)-6-phenylpyridazine-4-carboxamide] | 40 to 200 | 20 to 40
COc1ccc(Oc2nnc(C(F)(F)F)c(C)c2C(=O)Nc2cccc(S(C)(=N)=O)c2)c(C)n1 (stereo not shown) [Compound 1507, N-{3-[imino(methyl)oxo-λ^6-sulfanyl]phenyl}-3-[(6-methoxy-2-methylpyridin-3-yl)oxy]-5-methyl-6-(trifluoromethyl)pyridazine-4-carboxamide] | 40 to 200 | 40 to 200
COc1cc(C#N)ccc1Oc1nnc(C(F)(F)F)c(C)c1C(=O)Nc1ccc(C(N)=O)cc1 [Compound 1405] | ≤ 20 | ≤ 20
Cc1c(Oc2nnc(C(F)(F)F)c(C)c2C(=O)Nc2cccc(S(C)(=N)=O)c2)ccc(OC(F)(F)F)c1F (stereo not shown) [Compound 1515, 3-[3-fluoro-2-methyl-4-(trifluoromethoxy)phenoxy]-N-{3-[imino(methyl)oxo-λ^6-sulfanyl]phenyl}-5-methyl-6-(trifluoromethyl)pyridazine-4-carboxamide] | ≤ 20 | ≤ 20
COc1cc(C#N)ccc1Oc1nnc(-c2ncco2)c(C)c1C(=O)Nc1cccc(S(C)(=N)=O)c1 (stereo not shown) [Compound 1462, 3-(4-cyano-2-methoxy-phenoxy)-5-methyl-N-[3-(methylsulfonimidoyl)phenyl]-6-oxazol-2-yl-pyridazine-4-carboxamide; formic acid] | 200 to 500 | 200 to 500
Cc1cc(F)ccc1Oc1nnc(C(F)(F)F)c(C)c1C(=O)Nc1ccc(C(N)=O)cc1 [Compound 1416] | 40 to 200 | 40 to 200
COc1cc(C#N)ccc1Oc1nnc(-c2ccnnc2)c(C)c1C(=O)Nc1cccc(S(C)(=N)=O)c1 (stereo not shown) [Compound 1456, 3-(4-cyano-2-methoxy-phenoxy)-5-methyl-N-[3-(methylsulfonimidoyl)phenyl]-6-pyridazin-4-yl-pyridazine-4-carboxamide] | 200 to 500 | 200 to 500
Cc1ccc(Oc2nnc(C(F)(F)F)c(C)c2C(=O)Nc2cccc(S(C)(=N)=O)c2)c(C)n1 (single isomer, unassigned) [Compound 1484, 3-[(2,6-dimethylpyridin-3-yl)oxy]-N-{3-[imino(methyl)oxo-λ^6-sulfanyl]phenyl}-5-methyl-6-(trifluoromethyl)pyridazine-4-carboxamide] | 200 to 500 | 200 to 500
COc1cc(C#N)ccc1Oc1nnc(C(F)(F)F)c(C)c1C(=O)Nc1cccc(C(=O)N2CC(O)C2)c1 [Compound 1437, 3-(4-cyano-2-methoxy-phenoxy)-N-[3-(3-hydroxyazetidine-1-carbonyl)phenyl]-5-methyl-6-(trifluoromethyl)pyridazine-4-carboxamide] | 40 to 200 | 40 to 200
COc1cc(C#N)ccc1Oc1nnc(-c2cccc(C#N)c2)c(C)c1C(=O)Nc1cccc(S(C)(=N)=O)c1 (stereo not shown) [Compound 1451, 3-(4-cyano-2-methoxy-phenoxy)-6-(3-cyanophenyl)-5-methyl-N-[3-(methylsulfonimidoyl)phenyl]pyridazine-4-carboxamide] | 200 to 500 | 200 to 500
Cc1c(C(F)(F)F)nnc(Oc2ccc(OC(F)F)c(F)c2F)c1C(=O)Nc1cccc(S(C)(=O)=O)c1 [Compound 1422] | ≤ 20 | ≤ 20
Cc1cc(F)ccc1Oc1nnc(N2CC(F)C2)c(C)c1C(=O)Nc1cccc(S(C)(=N)=O)c1 (stereo not shown) [Compound 1431, 6-(3-Fluoroazetidin-1-yl)-3-(4-fluoro-2-methyl-phenoxy)-5-methyl-N-[3-(methylsulfonimidoyl)phenyl]pyridazine-4-carboxamide] | 200 to 500 | 200 to 500
Cc1c(C(F)(F)F)nnc(Oc2ccc(OC3CCC3)c(F)c2F)c1C(=O)Nc1cccc(S(C)(=N)=O)c1 (single isomer, unassigned) [Compound 1493, 3-(4-cyclobutoxy-2,3-difluorophenoxy)-N-{3-[imino(methyl)oxo-λ^6-sulfanyl]phenyl}-5-methyl-6-(trifluoromethyl)pyridazine-4-carboxamide] | ≤ 20 | ≤ 20
COc1cc(C#N)ccc1Oc1nnc(C(F)(F)F)c(C)c1C(=O)Nc1cccc(C(=O)NC2CCCC2C(N)=O)c1 (stereo not shown) [Compound 1444, N-[3-[(2-carbamoylcyclopentyl)carbamoyl]phenyl]-3-(4-cyano-2-methoxy-phenoxy)-5-methyl-6-(trifluoromethyl)pyridazine-4-carboxamide] | 200 to 500 | 200 to 500
COc1cc(C#N)ccc1Oc1nnc(C(F)(F)F)c(C)c1C(=O)Nc1cccc(C(=O)NCCO)c1 [Compound 1441, 3-(4-cyano-2-methoxy-phenoxy)-N-[3-(2-hydroxyethylcarbamoyl)phenyl]-5-methyl-6-(trifluoromethyl)pyridazine-4-carboxamide] | 200 to 500 | 200 to 500
Cc1cc(C#N)ccc1Oc1nnc(C(F)(F)F)c(C)c1C(=O)Nc1cccc([S@@](C)(=N)=O)c1 [Compound 1525, 3-(4-cyano-2-methylphenoxy)-N-{3-[(S)-imino(methyl)oxo-λ^6-sulfanyl]phenyl}-5-methyl-6-(trifluoromethyl)pyridazine-4-carboxamide] | ≤ 20 | ≤ 20
COc1c(Oc2nnc(C)c(C)c2C(=O)Nc2cccc(S(C)(=N)=O)c2)ccc(F)c1F (stereo not shown) [Compound 1435, 3-(3,4-difluoro-2-methoxyphenoxy)-5,6-dimethyl-N-(3-(S-methylsulfonimidoyl)phenyl)pyridazine-4-carboxamide] | 200 to 500 | 200 to 500

The next lines start with the values.

IC50 [1] [nM] | IC50 [2] [nM] | Compound
40 to 200 | 200 to 500 | CS(=O)(=O)c1cccc(NC(=O)c2cc(C(F)(F)F)cnc2Oc2cc(OC(F)(F)F)ccc2F)c1 [Compound 1658]
200 to 500 | 200 to 500 | CS(=N)(=O)c1cccc(NC(=O)c2cc(C(F)(F)F)cnc2OCC23CC(C#N)(C2)C3)c1 (stereo not shown) [Compound 1631]
200 to 500 | 200 to 500 | CS(=O)(=O)c1cccc(NC(=O)c2cc(C(F)(F)F)cnc2Oc2cccc3c2OCCC3)c1 [Compound 1626]
20 to 40 | 20 to 40 | COc1cc(C#N)ccc1Oc1nnc(-c2ccccc2F)c(C)c1C(=O)Nc1cccc([S@](C)(=N)=O)c1 [Compound 1537, 3-(4-cyano-2-methoxyphenoxy)-6-(2-fluorophenyl)-N-{3-[(R)-imino(methyl)oxo-λ^6-sulfanyl]phenyl}-5-methylpyridazine-4-carboxamide]
≤ 20 | ≤ 20 | COc1cc(C#N)ccc1Oc1ncc(Br)cc1C(=O)Nc1cccc(S(C)(=N)=O)c1 (stereo not shown) [Compound 1686]
40 to 200 | 40 to 200 | CS(=O)(=O)c1cccc(NC(=O)c2cc(C(F)(F)F)cnc2OCC23CC(F)(C2)C3)c1 [Compound 1629]
40 to 200 | 40 to 200 | COc1cc(C#N)ccc1Oc1nnc(-c2ccc(C#N)cc2)c(C)c1C(=O)Nc1cccc([S@](C)(=N)=O)c1 [Compound 1531, (R)-3-(4-cyano-2-methoxyphenoxy)-6-(4-cyanophenyl)-5-methyl-N-(3-(S-methylsulfonimidoyl)phenyl)pyridazine-4-carboxamide]
40 to 200 | 40 to 200 | Cc1nc(OC2CCC2)ccc1Oc1ncc(C(F)(F)F)cc1C(=O)Nc1cccc(S(C)(=N)=O)c1 (stereo not shown) [Compound 1669]
200 to 500 | 200 to 500 | COc1cc(C#N)ccc1Oc1nnc(C(F)(F)F)c(C)c1C(=O)Nc1ccc(OC)c(C(N)=O)c1 [Compound 1541, N-(3-carbamoyl-4-methoxy-phenyl)-3-(4-cyano-2-methoxy-phenoxy)-5-methyl-6-(trifluoromethyl)pyridazine-4-carboxamide]
